# Assays:
# [1] = system: ST2 cells; test: Osteogenesis of multipotential ST2 cells, Alizarin Red-S staining for mineralization; assay type: cell-based; settings: 3 μM on days 0 and 2 vs DMSO control; Alizarin Red-S stain on day 10; FIG. 1B
# Method: FIG. 1B. Multipotential ST2 cells were induced to undergo osteogenesis as described (Hankenson and Bornstein 2002). On days 0 and 2, cells were treated with DMSO (control) or 3 μM CHIR99021 6-[(2-{[4-(2,4-dichlorophenyl)-5-(4-methylimidazol-2-yl)pyrimidin-2-yl]amino}ethyl)amino]pyridine-3-carbonitrile (Chiron Corporation, Emeryville, Calif.). On day 10, cells were stained with Alizarin Red-S for mineralization.
# [2] = system: 3T3-L1 preadipocyes; settings: cited from earlier work
smiles,measurement,setting,value
"Cc1c[nH]c(-c2cnc(NCCNc3ccc(C#N)cn3)nc2-c2ccc(Cl)cc2Cl)n1 [CHIR99021, 6-[(2-{[4-(2,4-dichlorophenyl)-5-(4-methylimidazol-2-yl)pyrimidin-2-yl]amino}ethyl)amino]pyridine-3-carbonitrile]",osteoblastogenesis and mineralization of bipotential ST2 cells,[1],increases osteoblastogenesis and mineralization
same,Wnt signaling in vitro,[2],mimic Wnt signaling
same,adipocyte conversion,[2]; in vitro,blocking adipocyte conversion
